In US5366726A (priority 1992, dated 1994):
Several values for one entry are separate records, joined by “and”; a condition that tells them apart may be missing. Equal values may be shown once. Entries after “also recorded” stand apart in the source; their conditions may differ. Read-outs that look alike come from different tables or passages of the source.

Tests used:
Pneumocystis carinii [1] = conditions: standard therapy, intravenous pentamidine or TMP-SMX
Excerpt: Adult patients having or suspected of having AIDS, and who were hospitalized for a fiberoptic bronchoscopy to evaluate diffuse infiltrates on chest radiographs, were studied. The patients were divided into two groups.

Pneumocystis carinii [2] = assay: Example 6: prevention of PCP, different dosages and regimens; format: in vivo, human; conditions: of 372, at least one treatment
Excerpt: A total of 438 participants were selected on the basis of seropositivity for HIV, and were stratified on the basis of (i) prior PCP (n=250), (ii) Kaposi's sarcoma (n=59) or (iii) ARC (n=129).

Pneumocystis carinii [3] = conditions: cited from earlier work; for Vital Capacity: percent predicted
[4] = parameters: species or system human; conditions: in vivo
Excerpt: (§1) Five patients who developed PCP within 28 days were not evaluated. One hundred (66%) of the patients were concurrently receiving AZT, and 42 (28%) had experienced one prior episode of PCP.

Pneumocystis carinii [5] = assay: Example 5: prevention of P. carinii pneumonia, 300 mg once per month; format: in vivo, human; conditions: single prior episode; vs 10 based on 132 historical controls, p<0.01
Excerpt: (§2) Within 30 days of initiation of prophylaxis, ten patients were omitted due to treatment (9) or relapse (1). Of the 93 patients, 48 had had at least one previous episode of PCP. Two-thirds of the patients were taking AZT at the onset and throughout the duration of the post-exposure prophylaxis. The median and maximum duration of treatment at the time of analysis was 3.1 and 5.2 months.

Pneumocystis carinii [6] = assay: Example 7: prevention of PCP, 300 mg twice per month vs 600 mg once per month; format: in vivo, human
Excerpt: as §1

Pneumocystis carinii [7] = assay: Example 8: randomized clinical trial, prevention of PCP; format: in vivo, human
[8] = cited from earlier work
[9] = parameters: species or system human; conditions: in vivo; remark: listed apart in the source
Excerpt: as §2

[10] = parameters: species or system human; conditions: in vivo; remark: listed apart in the source
Excerpt: Chest radiographs and arterial blood gas tensions were obtained as clinically indicated.
Liver function SGOT or SGPT
Rash with fever or mucositis
Cough cough or bronchospasm un-

[11] = Example 1: pentamidine concentrations in plasma and bronchoalveolar lavage fluid (HPLC); format: in vivo, human; conditions: for Plasma conc. on Day 1: peak during or end of inhalation, single patients
Protocol: For six inhalation patients (1, 4, 6, 7, 15, and 16) and five i.v. patients (2, 3, 5, 8, and 22), plasma samples were obtained at the completion of therapy and at 0.17, 0.5, 1, 1.5, 2, 2.5, 3, 4, 5, 6, 8, 10, 12, and 18 hours following initiation of therapy. For patients 9-14 and 17-21, trough and peak plasma samples were collected for the first three days, then weekly during therapy. Trough and peak samples were obtained on days 2, 3, 4, 5, 7, 11, and 13 for patient 2, days 2, 3, 4, 5, 7, and 12 for patient 3, days 2, 3, 4, 5, 13 and 18 for patient 5, and days 2, 3, 4, 5, and 11 for patient 8.

[12] = inhaled, animals; cited from earlier work
[13] = Example 3: serum pentamidine concentrations; format: in vivo; conditions: human, inhaled or intranasal, 300 mg, serum pentamidine concentration at end of therapy, 2 patients
Pneumocystis carinii [14] = assay: Example 1: treatment of P. carinii pneumonia, inhaled vs intravenous pentamidine; format: in vivo, human
[15] = all strata, eligible, PCP within 60 days, 30 mg
[16] = all strata, eligible, confirmed PCP within 60 days, 30 mg
[17] = prior PCP strata, eligible, PCP within 60 days, 30 mg
[18] = prior PCP strata, eligible, PCP within 60 days, 150 mg
[19] = prior PCP strata, eligible, PCP within 60 days, 300 mg
[20] = prior PCP strata, eligible, confirmed PCP within 60 days, 30 mg
[21] = prior PCP strata, eligible, confirmed PCP within 60 days, 150 mg
[22] = prior PCP strata, eligible, confirmed PCP within 60 days, 300 mg

## N=C(N)c1ccc(OCCCCCOc2ccc(C(=N)N)cc2)cc1 [pentamidine, p,p'-(pentamethylenedioxy)dibenzamidine]
Pneumocystis carinii [1]
  response of all patients infected with P. carinii: responded to standard therapy
aerosol
  mild cough controlled by metaproterenol, patients: 9 patients
aerosol, all smokers
  severe coughing, patients: 3 patients
In vivo
  adverse systemic reactions (renal, liver, hematologic, hypoglycemia, hypotension): No adverse systemic reactions
  air-way obstruction: Neither clinical nor spirometric evidence of air-way obstruction occurred
  clinical bronchospasm: not seen
  coughing with therapy, patients: Twelve
N = 15
  Toxicity Req Change of Therapy: 0(0) n (%)
Pneumocystis carinii [2]
  participants who experienced relapse: 17
Pneumocystis carinii [3]; post therapy, TMP-DPS only 8 patients tested
  PaO2: 87.2 torr
Pneumocystis carinii [3]; post therapy
  DLCO: 62
  Vital Capacity: 80
Pneumocystis carinii [3]; pre therapy
  DLCO: 59.0
  PaO2: 69.3 torr
  Vital Capacity: 70
[4]
  prophylaxis discontinued due to bronchospasm, patients: one
Pneumocystis carinii [5]
  number of observed cases: 3 cases
Pneumocystis carinii [6]; 300 mg twice or 600 mg once per month, p<0.01 vs previous study
  attack rate at 6.38 months: 3%
Pneumocystis carinii [6]; 3 deaths
  deaths associated with PCP: 2%
Pneumocystis carinii [6]; 9 deaths
  deaths due to other causes: 6%
Pneumocystis carinii [6]; 12 of 146
  evaluable patients who died: 8%
Pneumocystis carinii [7]; 150 mg arm, compared with 30 mg arm, not statistically significant vs 300 mg
  effectiveness vs 300 mg: consistently less effective than 300 mg
Pneumocystis carinii [7]; 150 mg vs 30 mg
  time to PCP occurrence, Kaplan-Meier: superior to the 30 mg arm but less so than the 300 mg arm
Pneumocystis carinii [7]; 300 mg arm
  PCP episodes vs other arms: fewest PCP episodes
Pneumocystis carinii [7]; 300 mg every 4 weeks vs 30 mg every 2 weeks
  time to PCP occurrence, Kaplan-Meier: consistently superior
Pneumocystis carinii [7]; 300 mg group
  hazard of PCP, Cox model: significantly lower hazard of PCP
Pneumocystis carinii [7]; all arms
  PCP episodes documented during study: One hundred-one
  PCP events not histologically confirmed: Twenty-five
  completed the study without reaching a study endpoint: 26%
  deaths due to PCP: Nineteen
Pneumocystis carinii [7]; all strata, eligible, PCP within 60 days
  p, log rank 30 mg vs. 300 mg: .004
Pneumocystis carinii [7]; [15]
  No PCP: 89
  PCP: 28
Pneumocystis carinii [7]; all strata, eligible, PCP within 60 days, 150 mg
  PCP: 18
Pneumocystis carinii [7]; all strata, eligible, PCP within 60 days, 300 mg
  PCP: 16
Pneumocystis carinii [7]; all strata, eligible, confirmed PCP within 60 days
  p, log rank 30 mg vs. 300 mg: .0008
Pneumocystis carinii [7]; [16]
  No PCP: 95
  PCP: 22
Pneumocystis carinii [7]; all strata, eligible, confirmed PCP within 60 days, 150 mg
  PCP: 16
Pneumocystis carinii [7]; all strata, eligible, confirmed PCP within 60 days, 300 mg
  PCP: 8
Pneumocystis carinii [7]; all strata, intention to treat
  p, log rank 30 mg vs. 300 mg: .02
Pneumocystis carinii [7]; all strata, intention to treat, all PCP, 30 mg
  PCP: 41
Pneumocystis carinii [7]; all strata, intention to treat, all PCP, 150 mg
  PCP: 32
Pneumocystis carinii [7]; all strata, intention to treat, all PCP, 300 mg
  PCP: 28
Pneumocystis carinii [7]; all strata, intention to treat, 30 mg
  No PCP: 94
Pneumocystis carinii [7]; for 150 mg
  Cox relative hazard of 30 mg, on study drugs events: 1.7
Pneumocystis carinii [7]; for 300 mg
  Cox relative hazard of 30 mg, on study drugs events: 3.9
Pneumocystis carinii [7]; human, in vivo
  all cause mortality between three treatment arms: did not significantly differ
Pneumocystis carinii [7]; initial CD4 counts greater than 200, no prior PCP
  participants who developed PCP: 5.1%
Pneumocystis carinii [7]; initial CD4 counts less than 200, no prior PCP
  participants who developed PCP: 13%
Pneumocystis carinii [7]; prior PCP strata, eligible, PCP within 60 days
  p, log rank 30 mg vs. 300 mg: .006
Pneumocystis carinii [7]; [17]
  No PCP: 42
  PCP: 25
Pneumocystis carinii [7]; [18]
  No PCP: 51
  PCP: 16
Pneumocystis carinii [7]; [19]
  No PCP: 60
  PCP: 14
Pneumocystis carinii [7]; prior PCP strata, eligible, confirmed PCP within 60 days
  p, log rank 30 mg vs. 300 mg: .002
Pneumocystis carinii [7]; [20]
  No PCP: 47
  PCP: 20
Pneumocystis carinii [7]; [21]
  No PCP: 53
  PCP: 14
Pneumocystis carinii [7]; [22]
  No PCP: 66
  PCP: 8
Pneumocystis carinii [7]; prior PCP strata, intention to treat
  p, log rank 30 mg vs. 300 mg: .02
Pneumocystis carinii [7]; prior PCP strata, intention to treat, all PCP, 30 mg
  PCP: 33
Pneumocystis carinii [7]; prior PCP strata, intention to treat, all PCP, 150 mg
  PCP: 24
Pneumocystis carinii [7]; prior PCP strata, intention to treat, all PCP, 300 mg
  PCP: 21
Pneumocystis carinii [7]; prior PCP strata, intention to treat, 30 mg
  No PCP: 46
Pneumocystis carinii [7]; prior PCP strata, intention to treat, 150 mg
  No PCP: 54
Pneumocystis carinii [7]; prior PCP strata, intention to treat, 300 mg
  No PCP: 59
Pneumocystis carinii [7]; prior PCP stratum, all arms
  PCP episodes: Seventy-eight
Pneumocystis carinii [7]; prophylaxis started within 3 months of prior episode
  median time to PCP relapse: 240 days
Pneumocystis carinii [7]; therapy started within 3 months vs later
  hazard of PCP: less than half the hazard of PCP
[8]; human, in vivo
  less common adverse effects: cardiac arrhythmias and pancreatitis
[8]; intramuscular
  local reactions at site of intramuscular injection: Pain, swelling and sterile abscesses
[8]; intravenous
  generalized or local reactions, intravenous: thrombophlebitis and generalized or localized urticarial eruptions
[8]; parenteral
  hypoglycemia: Hypoglycemia has also been reported
  impaired renal function: about 25%
  other common adverse reactions: elevation of liver enzymes, hematologic disturbances with neutropenia and thrombocytopenia, fever, hypocalcemia, and hallucinations
[8]; single intramuscular dose or rapid intravenous infusion
  hypotension: Severe hypotension
[9]
  major pentamidine-related toxicity: No major pentamidine-related toxicity
[10]
  severe adverse reactions: No patient developed any severe adverse reactions
[11]; human, plasma, intravenous, 3 mg/Kg, read-out: mean peak plasma concentration during first infusion
  Cmax: 260 ± 56 ng/mL
[11]; inhaled
  plasma samples with no detectable drug: approximately two-thirds
  Plasma conc. on Day 1: 0.0 ng/mL
[11]; inhaled vs intravenous
  lavage fluid concentration, inhalation vs iv-treated patients: approximately 10 fold
[11]; inhaled, 1440 min
  Plasma conc. on Day 1: 3.1 ng/mL and 14.7 ng/mL and 16.9 ng/mL and 7.3 ng/mL and 32.8 ng/mL and 12.3 ng/mL and 2.5 ng/mL and 7.4 ng/mL and 7.8 ng/mL and 35.0 ng/mL and 30.9 ng/mL and 9.2 ng/mL
[11]; intravenous, patient 3 day 5 (lowest), patient 19 day 14 (highest)
  maximum plasma concentration during remainder of therapy, single patients: 164 ng/mL and 1360 ng/mL
[12]
  microscopic airway changes: no microscopic airway changes
[13]
  concentration at 504 h: 22 ng/mL
Pneumocystis carinii [14]; inhaled
  successfully treated patients with relapses: three of ten
Pneumocystis carinii [14]; inhaled, 4 mg/Kg, UltraVent, single patients
  Outcome of therapy: success; also recorded: failed
Pneumocystis carinii [14]; inhaled, at one, three and two months
  patients readmitted and treated for P. carinii pneumonia after discharge: Three
Pneumocystis carinii [14]; inhaled, based on 9 successful patients
  Time to discharge, all patients in group: 15 ± 1 days
Pneumocystis carinii [14]; inhaled, of the remaining ten evaluated patients
  patients with satisfactory outcome: nine
Pneumocystis carinii [14]; inhaled, remaining six, one to nine months following discharge
  recurrence of PCP at follow-up: no recurrence of PCP
Pneumocystis carinii [14]; inhaled, single patients
  Time to discharge: 9 days
Pneumocystis carinii [14]; intravenous
  patients with satisfactory outcome: Eight of nine
Pneumocystis carinii [14]; intravenous, 3 mg/Kg, single patients
  Outcome of therapy: success; also recorded: failed
Pneumocystis carinii [14]; intravenous, based on 8 successful patients
  Time to discharge, all patients in group: 14 ± 2 days
Pneumocystis carinii [14]; intravenous, four patients, five to six months
  relapses at follow-up: no reported relapses
